Source: US6818765B1, “Benzene-sulphonamide derivatives and their uses” (Universite de Liege, priority 1999, dated 2004)
Like-named read-outs stand apart in the source and are kept apart here. Each block holds one molecule with its values, some of them ahead of it.

Target: T1, thromboxane A2 receptors (TPα) of human platelets (Homo sapiens, UniProt P21731)
T1 construct: endogenous in cells; host or cells: human platelets
T1 sequence (P21731 1-343): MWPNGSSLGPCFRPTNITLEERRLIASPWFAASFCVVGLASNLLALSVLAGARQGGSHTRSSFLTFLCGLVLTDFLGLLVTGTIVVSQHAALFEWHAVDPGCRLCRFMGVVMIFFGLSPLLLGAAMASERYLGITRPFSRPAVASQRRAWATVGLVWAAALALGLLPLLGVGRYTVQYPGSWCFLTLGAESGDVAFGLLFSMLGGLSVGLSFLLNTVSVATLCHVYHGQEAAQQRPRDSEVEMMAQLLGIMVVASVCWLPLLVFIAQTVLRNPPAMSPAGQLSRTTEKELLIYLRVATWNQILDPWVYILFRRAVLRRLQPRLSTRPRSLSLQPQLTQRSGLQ
Assay: Binding test: displacement of [3H]SQ-29.548 from human platelet thromboxane A2 receptors
Settings: for inhibition at 1 µM: read-out: Affinity: percent of [3H]SQ-29.548 specifically substituted by the examined compound, compound 10^-6 M; for inhibition at 0.1 µM: read-out: Affinity: percent of [3H]SQ-29.548 specifically substituted by the examined compound, compound 10^-7 M
Excerpt: To operate a first selection, the capacity of these compounds to displace in a specific way a tritium ligand, the [^3H]
Cozzi P., Giordani A., Menichincheri M., Pillan A., Pinciroli V., Rossi A., Tonani R., Volpi D., Tamburin M., Ferrario R., Fusar D., Salvati P.,—Agents combining thromboxane receptor antagonism with thromboxane synthase inhibition:[[[2-(1H-imidazol-1-yl)ethylidene]amino]oxy]alkanoic acids.—J. Med. Chem., 1994, 37, 3588-3604.

[1] = read-out: IC 50: concentration required for replacing 50% of [3H]SQ-29.548 bound to receptors TPα

Affinity: percent of [3H]SQ-29.548 specifically substituted by the examined compound, 10^-6M: 46.6%
SMILES: O=C(Nc1ccccc1)NS(=O)(=O)c1cc([N+](=O)[O-])ccc1NC1CCCCC1 [Compound 65]

Affinity: percent of [3H]SQ-29.548 specifically substituted by the examined compound, 10^-6M: 86.7%
Affinity: percent of [3H]SQ-29.548 specifically substituted by the examined compound, 10^-7M: 46.0%
SMILES: C=CCNC(=O)NS(=O)(=O)c1cc([N+](=O)[O-])ccc1NC1CCCCC1 [Compound 32]

Affinity: percent of [3H]SQ-29.548 specifically substituted by the examined compound, 10^-6M: 79.1%
SMILES: CCCCCCCCCCNc1ccc([N+](=O)[O-])cc1S(=O)(=O)NC(=O)NC(C)C [Compound 60]

Affinity: percent of [3H]SQ-29.548 specifically substituted by the examined compound, 10^-6M: 45.0%
SMILES: CCCNc1ccc([N+](=O)[O-])cc1S(=O)(=O)NC(=S)NC(C)C [Compound 35]

Affinity: percent of [3H]SQ-29.548 specifically substituted by the examined compound, 10^-6M: 100%
Affinity: percent of [3H]SQ-29.548 specifically substituted by the examined compound, 10^-7M: 46.1%
SMILES: O=[N+]([O-])c1ccc(NC2CCCCC2)c(S(=O)(=O)NC(=S)NC2CCCCC2)c1 [Compound 16]

IC50: 1.83 nM
inhibition at 1 µM: 98.4%
inhibition at 0.1 µM: 94.3%
SMILES: Cc1cc(C)c(Nc2ccc([N+](=O)[O-])cc2S(=O)(=O)NC(=O)NC(C)C)c(C)c1 [Compound 86]

Affinity: percent of [3H]SQ-29.548 specifically substituted by the examined compound, 10^-6M: 63.8%
SMILES: CC(C)NC(=O)NS(=O)(=O)c1cc(Cl)ccc1NC1C=CCCC1 (centres unmarked) [Compound 70]

Affinity: percent of [3H]SQ-29.548 specifically substituted by the examined compound, 10^-6M: 51.9%
SMILES: CC(C)NC(=O)NS(=O)(=O)c1cc([N+](=O)[O-])ccc1NC1CCCCCCCCCCC1 [Compound 48]

Affinity: percent of [3H]SQ-29.548 specifically substituted by the examined compound, 10^-6M: 95.5%
Affinity: percent of [3H]SQ-29.548 specifically substituted by the examined compound, 10^-7M: 62.9%
SMILES: O=C(NC1CCCCC1)NS(=O)(=O)c1cc([N+](=O)[O-])ccc1NC1CCCCCCC1 [Compound 23]

Affinity: percent of [3H]SQ-29.548 specifically substituted by the examined compound, 10^-6M: 95.7%
Affinity: percent of [3H]SQ-29.548 specifically substituted by the examined compound, 10^-7M: 76.0%
SMILES: Cc1ccc(Nc2ccc([N+](=O)[O-])cc2S(=O)(=O)NC(=O)NC(C)C)cc1 [Compound 50]

SMILES: CCCNc1ccc([N+](=O)[O-])cc1S(=O)(=O)NC(=O)NC(C)C [Compound 20]
Affinity: percent of [3H]SQ-29.548 specifically substituted by the examined compound, 10^-6M: 1.6%

Affinity: percent of [3H]SQ-29.548 specifically substituted by the examined compound, 10^-6M: 13.2%
SMILES: CC(C)NC(=O)NS(=O)(=O)c1cc(F)ccc1NC1C=CCCC1 (centres unmarked) [Compound 69]

IC50: 4.5 nM
inhibition at 1 µM: 98.5%
inhibition at 0.1 µM: 98%
SMILES: CCCCNC(=O)NS(=O)(=O)c1cc([N+](=O)[O-])ccc1NC1CCCCC1 [Compound 82]

IC50: 4.5 nM
inhibition at 1 µM: 98.5%
inhibition at 0.1 µM: 92.7%
SMILES: CCCCCCNC(=O)NS(=O)(=O)c1cc([N+](=O)[O-])ccc1NC1CCCCC1 [Compound 83]

Affinity: percent of [3H]SQ-29.548 specifically substituted by the examined compound, 10^-6M: 67.0%
SMILES: CCCCCCNc1ccc([N+](=O)[O-])cc1S(=O)(=O)NC(=O)NC(C)C [Compound 57]

Affinity: percent of [3H]SQ-29.548 specifically substituted by the examined compound, 10^-6M: 97.8%
Affinity: percent of [3H]SQ-29.548 specifically substituted by the examined compound, 10^-7M: 93.3%
IC50 [1]: 3.96 nM
SMILES: Cc1cccc(Nc2ccc([N+](=O)[O-])cc2S(=O)(=O)NC(=O)NC(C)(C)C)c1 [Compound 19]

Affinity: percent of [3H]SQ-29.548 specifically substituted by the examined compound, 10^-6M: 95.1%
Affinity: percent of [3H]SQ-29.548 specifically substituted by the examined compound, 10^-7M: 80.8%
SMILES: Cc1ccccc1Nc1ccc([N+](=O)[O-])cc1S(=O)(=O)NC(=O)NC(C)C [Compound 30]

Affinity: percent of [3H]SQ-29.548 specifically substituted by the examined compound, 10^-6M: 92.3%
Affinity: percent of [3H]SQ-29.548 specifically substituted by the examined compound, 10^-7M: 50.5%
SMILES: O=[N+]([O-])c1ccc(NC2CCCCC2)c(S(=O)(=O)NC(=S)NCc2ccco2)c1 [Compound 42]

Affinity: percent of [3H]SQ-29.548 specifically substituted by the examined compound, 10^-6M: 67.2%
SMILES: CC(C)NC(=S)NS(=O)(=O)c1cc([N+](=O)[O-])ccc1NC1CCCCCC1 [Compound 12]

IC50: 1.2 nM
inhibition at 1 µM: 98.3%
inhibition at 0.1 µM: 95.6%
SMILES: Cc1cccc(Nc2ccc([N+](=O)[O-])cc2S(=O)(=O)NC(=O)NC(C)(C)C)c1C [Compound 73]

IC50: 23.9 nM
inhibition at 1 µM: 96.9%
inhibition at 0.1 µM: 73.7%
SMILES: CCCCCCCNC(=O)NS(=O)(=O)c1cc([N+](=O)[O-])ccc1NC1CCCCC1 [Compound 84]

Affinity: percent of [3H]SQ-29.548 specifically substituted by the examined compound, 10^-6M: 99.0%
Affinity: percent of [3H]SQ-29.548 specifically substituted by the examined compound, 10^-7M: 93.9%
IC50 [1]: 2.8 nM
SMILES: Cc1ccccc1Nc1ccc([N+](=O)[O-])cc1S(=O)(=O)NC(=O)NC(C)(C)C [Compound 52]

Affinity: percent of [3H]SQ-29.548 specifically substituted by the examined compound, 10^-6M: 77.8%
SMILES: CC(C)NC(=O)NS(=O)(=O)c1cc(Br)ccc1NC1C=CCCC1 (centres unmarked) [Compound 71]

IC50: 1.62 nM
inhibition at 1 µM: 98.8%
inhibition at 0.1 µM: 95.2%
SMILES: CCCCCNC(=O)NS(=O)(=O)c1cc([N+](=O)[O-])ccc1Nc1c(C)cc(C)cc1C [Compound 92]

inhibition at 1 µM: 98.6%
inhibition at 0.1 µM: 94.8%
IC50 [1]: 1.1 nM
SMILES: CCCCCNC(=O)NS(=O)(=O)c1cc([N+](=O)[O-])ccc1NC1CCCCC1 [Compound 61]

Affinity: percent of [3H]SQ-29.548 specifically substituted by the examined compound, 10^-6M: 80.2%
Affinity: percent of [3H]SQ-29.548 specifically substituted by the examined compound, 10^-7M: 51.3%
SMILES: CCNC(=O)NS(=O)(=O)c1cc([N+](=O)[O-])ccc1NC1CCCCCCC1 [Compound 44]

Affinity: percent of [3H]SQ-29.548 specifically substituted by the examined compound, 10^-6M: 77.2%
SMILES: CC(C)NC(=S)NS(=O)(=O)c1cc([N+](=O)[O-])ccc1NC1CCCCC1 [Compound 38]

Affinity: percent of [3H]SQ-29.548 specifically substituted by the examined compound, 10^-6M: 75.6%
SMILES: CC(C)NC(=S)NS(=O)(=O)c1cc([N+](=O)[O-])ccc1NCc1ccccc1 [Compound 36]

Affinity: percent of [3H]SQ-29.548 specifically substituted by the examined compound, 10^-6M: 74.5%
SMILES: CCNC(=S)NS(=O)(=O)c1cc([N+](=O)[O-])ccc1NC1CCCCCC1 [Compound 39]

Affinity: percent of [3H]SQ-29.548 specifically substituted by the examined compound, 10^-6M: 67.7%
SMILES: CC(C)NC(=O)NS(=O)(=O)c1cc([N+](=O)[O-])ccc1NC1CCCC1 [Compound 2]

Affinity: percent of [3H]SQ-29.548 specifically substituted by the examined compound, 10^-6M: 63.7%
SMILES: Cc1cccc(Nc2ccc([N+](=O)[O-])cc2S(=O)(=O)NC(=S)NC(C)C)c1 [Compound 11]

Affinity: percent of [3H]SQ-29.548 specifically substituted by the examined compound, 10^-6M: 50.0%
SMILES: CC(C)NC(=O)NS(=O)(=O)c1cc(C#N)ccc1NC1CCCCC1 [Compound 43]

IC50: 7.8 nM
inhibition at 1 µM: 97.9%
inhibition at 0.1 µM: 90.2%
SMILES: CCCCCNC(=O)NS(=O)(=O)c1cc(I)ccc1NC1C=CCCC1 (centres unmarked) [Compound 93]

Affinity: percent of [3H]SQ-29.548 specifically substituted by the examined compound, 10^-6M: 79.9%
Affinity: percent of [3H]SQ-29.548 specifically substituted by the examined compound, 10^-7M: 50.4%
SMILES: CCOC(=O)NS(=O)(=O)c1cc([N+](=O)[O-])ccc1NC1CCCC1 [Compound 45]

Affinity: percent of [3H]SQ-29.548 specifically substituted by the examined compound, 10^-6M: 96.6%
SMILES: CC(C)NC(=O)NS(=O)(=O)c1cc([N+](=O)[O-])ccc1N[C@H](C)c1ccccc1 [Compound 79]

Affinity: percent of [3H]SQ-29.548 specifically substituted by the examined compound, 10^-6M: 20.1%
SMILES: Cc1cccc(Nc2ccc([N+](=O)[O-])cc2S(=O)(=O)NC(=NC#N)NC(C)C)c1 [Compound 3]

Affinity: percent of [3H]SQ-29.548 specifically substituted by the examined compound, 10^-6M: 92.9%
Affinity: percent of [3H]SQ-29.548 specifically substituted by the examined compound, 10^-7M: 34.0%
SMILES: CC(C)NC(=S)NS(=O)(=O)c1cc([N+](=O)[O-])ccc1NC1CCCCC1 [Compound 14]

Affinity: percent of [3H]SQ-29.548 specifically substituted by the examined compound, 10^-6M: 97.7%
Affinity: percent of [3H]SQ-29.548 specifically substituted by the examined compound, 10^-7M: 60.3%
SMILES: CC(C)NC(=O)NS(=O)(=O)c1cc([N+](=O)[O-])ccc1NC1CCCCC1 [Compound 13]

Affinity: percent of [3H]SQ-29.548 specifically substituted by the examined compound, 10^-6M: 64.7%
SMILES: Cc1cccc(Nc2ccc([N+](=O)[O-])cc2S(=O)(=O)NC(=NC#N)NC(C)(C)C)c1 [Compound 51]

Affinity: percent of [3H]SQ-29.548 specifically substituted by the examined compound, 10^-6M: 93.1%
SMILES: CC(C)NC(=O)NS(=O)(=O)c1cc([N+](=O)[O-])ccc1NC(C)c1ccccc1 (racemic) [Compound 75]

Affinity: percent of [3H]SQ-29.548 specifically substituted by the examined compound, 10^-6M: 93.6%
Affinity: percent of [3H]SQ-29.548 specifically substituted by the examined compound, 10^-7M: 68.0%
SMILES: CC(C)NC(=O)NS(=O)(=O)c1cc([N+](=O)[O-])ccc1NC1CCCCCC1 [Compound 1]

Affinity: percent of [3H]SQ-29.548 specifically substituted by the examined compound, 10^-6M: 72.3%
SMILES: CC(C)NC(=S)NS(=O)(=O)c1cc([N+](=O)[O-])ccc1NC1CCCC1 [Compound 37]

IC50: 98.5 nM
inhibition at 1 µM: 89.7%
SMILES: CCCCCNC(=O)NS(=O)(=O)c1cc(C#N)ccc1NC1CCCCC1 [Compound 97]

IC50: 43.9 nM
inhibition at 1 µM: 92.3%
SMILES: CCCCCNC(=O)NS(=O)(=O)c1cc([N+](=O)[O-])ccc1Nc1cccc(C)c1 [Compound 96]

Affinity: percent of [3H]SQ-29.548 specifically substituted by the examined compound, 10^-6M: 81.0%
Affinity: percent of [3H]SQ-29.548 specifically substituted by the examined compound, 10^-7M: 16.6%
SMILES: CC(C)NC(=S)NS(=O)(=O)c1cc([N+](=O)[O-])ccc1NC1CCCCCCC1 [Compound 15]

IC50: 5.46 nM
inhibition at 1 µM: 96.9%
inhibition at 0.1 µM: 88.6%
SMILES: Cc1ccc(Nc2ccc([N+](=O)[O-])cc2S(=O)(=O)NC(=O)NC(C)C)c(C)c1 [Compound 90]

Affinity: percent of [3H]SQ-29.548 specifically substituted by the examined compound, 10^-6M: 7.5%
SMILES: CC(C)(C)NC(=O)NS(=O)(=O)c1cc([N+](=O)[O-])ccc1N1CCOCC1 [Compound 63]
